In patent publication US9572850B2, “Use of cajeput and Pimenta racemosa extract for treating parasitic infestation of fish” (Mars, Incorporated, priority 2009, dated 2017):

Legend:
[1] = test system: G. turnbulli; details: 0.15 mg/l alone (daily water changes)
Procedure: (§1) Efficacy of treatments in all trials was assessed using the following equation: Et=(L0−Lt)/L0 for Lt<L0, and ΔEt=0 for Lt>L0. Where • L0=parasite load at start of treatment • Lt=parasite load at end of treatment and • Et=efficacy of treatment at time t.

[2] = test system: single guppies each infected with 2-200 G. turnbulli; experiment: Host mortality in Trial 2
Procedure: They were fed on a mixture of live food (Daphnia and Artemia spp.) and Aquarian fish flakes at least twice daily and were maintained at 25±1° C. with a 12 h dark:12 h light cycle.
On D1 (day 1) and D8 (day 8) the number of parasites and their location on the host were recorded by screening fish anaesthetised with 0.02% MS222 using a stereo-microscope and cold light illumination.
In a second trial, single guppies (n=115) each infected with 2-200 G. turnbulli were maintained as in Trial 1 and received treatments of either allyl disulphide, Pimafix®, Melafix® or a Pimafix®/Melafix® combination.

[3] = test system: Gyrodactylus turnbulli infections on guppies; experiment: Allyl disulphide carefully applied: high dose 10 min exposure, followed by low dose 1 h exposure; format: in vivo; details: high dose 10 min exposure, followed by low dose 1 h exposure
[4] = test system: G. turnbulli; experiment: Trial 2: single parasite, single fish, low dose, 7 day treatment; efficacy of treatments; format: in vivo
Procedure: as §1
All data were analysed in Minitab vs. 15.

Compound	efficacy at removing parasites (in words) [1]	increase of host mortality compared to the control [2]	Host mortalities (%) Trial 2 ([2]; single guppies, 7 day treatment)	efficacy (in words) [3]	efficacy (in words) ([4]; Trial 2, single parasite, single fish, low dose, 7 day treatment)	efficacy (in words) ([4]; applied at a low dose, comparable to applications used in the aquarium trade)
c1ccc([C@H]2CN3CCSC3=N2)cc1 [Levamisole, levamisole]	not effective at removing parasites	–	–	–	–	–
C=CCSSCC=C [Allyl disulphide, allyl disulphide]	–	15%	50%	effective only when carefully applied	not effective	not effective
